Assay results: patent US7220732B2, “Compounds useful as photodynamic therapeutic agents” (priority 2002, dated 2007)

How the values were obtained:
[1] = Fluorescence emission and fluorescence quantum yield; assay type: physicochemical
Description: The absorption bands of each photosensitiser are relatively insensitive to solvent changes with solutions in water/Cremophor resulting in a further bathochromic shift of ˜10 nm (Table 1). Excitation of chloroform solutions of the 2a and 4a at 635 nm gave a fluorescence band at 672 and 673 nm respectively (FIG. 2, Table 2). […] The reduction in fluorescence quantum yield in the series would imply more efficient population of the triplet excited state which would benefit singlet oxygen production. The ability of 2 and 4 to produce singlet oxygen would be a prerequisite to them being potential PDT agents.

HeLa cells [2] = test: Fluorescence microscopy cellular localisation (DAPI dual staining); assay type: cell-based; settings: 10^−5 M, DAPI nuclear stain
Experimental: Cells were seeded at a density of 30,000 cells/well in chamber slides and allowed to adhere for 24 hr. 2a (10^−5 M) was then added to each chamber and incubated at 37° C. in the dark for either 1 hr or 3 hrs at 37° C.—a one hour incubation was used for FIGS. 4 and 5. The medium was removed and the cells were washed 4 times with drug-free (2a free) medium. The cells were then fixed with 3.7% (v/v) formaldehyde for 15 min at 37° C. The fixative solution was removed and the cells were washed twice with sterile PBS. DAPI (4′,6-diamidino-2-phenylindole) nuclear stain (1/1000) was then incubated with the cells for 10 min at 37° C., following which the cells were washed twice with PBS. Cells were then mounted in Vectashield (Trade Mark) mounting medium.
The cells were viewed using an Axio Zeiss fluorescent microscope. The cells were examined at the different time points using two different filters. The rhodamine filter, which is specific for the wavelength region in which 2a fluoresces, was used to visualise 2a. The DAPI filter was employed to examine the nuclei of the cells.
Cancer cellular uptake of a photosensitiser is a prerequisite for it to act as a PDT agent. Delivery of our proposed PDT agents required formulation of the sensitisers in order to impart water solubility. […]

HeLa cells [3] = test: F-actin staining fluorescence microscopy of treated HeLa cells; assay type: cell-based
Experimental: FIG. 15 illustrates a control experiment which is a fluorescence microscope image of F-actin stained HeLa cells (with rhodamine phalloidine, red colour) 24 hours after treatment with Compound 2a and no exposure to light (0 min light dose). FIG. 15 illustrates such F-Actin stained cells are live.
FIG. 16 confirms cell death following treatment with Compound 2a and 30 minute 500 W light dose, using fluorescence microscopy. More specifically, FIG. 16 is a fluorescence microscope image of F-actin stained HeLa cells (with rhodamine phalloidine, red colour) 24 hours after treatment with Compound 2a and 30 minute light dose.

## F[B-]1(F)n2c(-c3ccccc3)cc(-c3ccccc3)c2N=C2C(c3ccccc3)=CC(c3ccccc3)=[N+]21 [Compound 2a]
[1]; CHCl3, room temperature, excitation at 635 nm
  λ em (fluorescence band): 672 nm
[1]; Water/Cremophor (100:1), room temperature
  λ em (fluorescence band): 683 nm
[1]; relative to magnesium tetra-tert-butylphthalocyanine in CHCl3, room temperature
  Φf (fluorescence quantum yield): 0.34
HeLa cells [2]
  cellular localisation: primarily at the endoplasmic reticulum and not in the nucleus
HeLa cells [3]; 24 hours after treatment and 30 minute 500 W light dose
  cell state by F-actin staining: cell death
HeLa cells [3]; 24 hours after treatment, no exposure to light
  cell state by F-actin staining: live
